Among the data in patent US7060718B2, “Arylsulfonanilide ureas” (Amgen Inc., priority 1998, dated 2006) are IC (TGI) and melting point values, retold here.

Data set [1] relates to HeLa cells. Put plainly: Tumor cell growth arrest in culture, Alamar Blue assay (HeLa). Format: cell-based. Conditions: Homo sapiens, concentration at which total growth inhibition occurred, 72 hours of treatment, triplicate. How it is done: (§1) The ability of test compounds to arrest the growth of tumor cells in culture was evaluated using HeLa cells, derived from a human cervical adenocarcinoma, and obtained from the American Type Culture Collection (ATCC, Rockville, Md.). Cells were grown in culture in the usual way. Test compounds were dosed in triplicate at concentrations ranging from 5 μM to 50 μM, and the cellular growth rate was calculated by harvesting the cells after 72 hours of treatment and measuring their metabolic activity using an Alamar Blue assay (Biosource International, Camarillo, Calif.). The degree of metabolic activity in the culture is proportional to the number of living cells. See, Ahmed et al., J. Immunol. Methods 1994, 170, 211. The change in growth rate for cells treated with test compounds was normalized to the growth of untreated cells and a plot of normalized cellular growth vs. compound concentration was made. The concentration at which total growth inhibition (TGI) occurred was determined. Compounds were similarly evaluated for cell growth inhibition using MCF-7/ ADR cells.

Data set [2] relates to MCF-7/ADR cells. Put plainly: Cell growth inhibition (MCF-7/ADR), evaluated similarly. Format: cell-based. The settings on record: Homo sapiens, NCI/ADR-RES, concentration at which total growth inhibition occurred. How it is done:
as §1

SMILES strings stand for the structures.

`COc1ccc(NS(=O)(=O)c2c(F)c(F)c(F)c(F)c2F)cc1NC(N)=O` [Compound 5] showed a melting point of 226 °C. Besides, in data set [1], the IC (TGI) is below 5 µM. The IC (TGI) in data set [2] was below 5 µM.
`CCOC(=O)CNC(=O)Nc1cc(NS(=O)(=O)c2c(F)c(F)c(F)c(F)c2F)ccc1OC` [Compound 6] yielded a melting point of 164 to 170 °C. Besides, the IC (TGI) in data set [1] is above 40 µM. In addition, the IC (TGI) in data set [2] is above 40 µM.
Regarding `COc1ccc(NS(=O)(=O)c2c(F)c(F)c(F)c(F)c2F)cc1NC(=O)n1nccc1N` [Compound 7], the melting point lay in the range of 140 to 144 °C. Further, the IC (TGI) in data set [1] is below 5 µM. In addition, the IC (TGI) in data set [2] was below 5 µM.
As to `COc1ccc(NS(=O)(=O)c2c(F)c(F)c(F)c(F)c2F)cc1NC(=O)NCc1ccco1` [Compound 8], the melting point came out at 208 °C. The IC (TGI) in data set [1] is below 5 µM. For the same compound, the IC (TGI) in data set [2] is below 5 µM.
Consider `COc1ccc(NS(=O)(=O)c2c(F)c(F)c(F)c(F)c2F)cc1NC(=O)N1CCOCC1` [Compound 9], for which the IC (TGI) in data set [1] and in data set [2] was 5 to 40 µM in each case.
Take `COc1ccc(NS(=O)(=O)c2c(F)c(F)c(F)c(F)c2F)cc1NC(=O)NCC(O)CO` (centres unmarked) [Compound 10]: the IC (TGI) in data set [1] and in data set [2] was 5 to 40 µM each time.
Turning to `COc1ccc(NS(=O)(=O)c2c(F)c(F)c(F)c(F)c2F)cc1NC(=O)NCC(N)=O` [Compound 11], the IC (TGI) in data set [1] and in data set [2] was above 40 µM each time.
Turning to `COc1ccc(NS(=O)(=O)c2c(F)c(F)c(F)c(F)c2F)cc1NC(=O)NC(CO)CO` [Compound 12], the IC (TGI) in data set [1] and in data set [2] was above 40 µM throughout.
With `COc1ccc(NS(=O)(=O)c2c(F)c(F)c(F)c(F)c2F)cc1NC(=O)NCCO` [Compound 13], the figures for the IC (TGI) in data set [1] and in data set [2] were 5 to 40 µM and above 40 µM, respectively.
As for `COc1ccc(NS(=O)(=O)c2c(F)c(F)c(F)c(F)c2F)cc1NC(=O)NCCCO` [Compound 14], the IC (TGI) in data set [1] is 5 to 40 µM; in data set [2], above 40 µM.
The matching figures for `COc1ccc(NS(=O)(=O)c2c(F)c(F)c(F)c(F)c2F)cc1NC(=O)N(CCO)CCO` [Compound 15]: above 40 µM and above 40 µM.
The corresponding values for `COc1ccc(NS(=O)(=O)c2c(F)c(F)c(F)c(F)c2F)cc1NC(=O)Nc1ccccc1` [Compound 16] are 5 to 40 µM and above 40 µM.
`COc1ccc(NS(=O)(=O)c2c(F)c(F)c(F)c(F)c2F)cc1NC(=O)Nc1nccs1` [Compound 17]: the IC (TGI) in data set [1] and in data set [2] was above 40 µM in each case.
On to `COc1ccc(NS(=O)(=O)c2c(F)c(F)c(F)c(F)c2F)cc1NC(=O)n1ncnc1N` [Compound 18], for which the IC (TGI) in data set [1] and in data set [2] was below 5 µM in each case.
Consider `COc1ccc(NS(=O)(=O)c2c(F)c(F)c(F)c(F)c2F)cc1NC(=O)Nc1nnn[nH]1` [Compound 19], for which the IC (TGI) in data set [1] was below 5 µM; in data set [2], 5 to 40 µM.
For the compound `COc1ccc(NS(=O)(=O)c2c(F)c(F)c(F)c(F)c2F)cc1NC(=O)Nc1nncs1` [Compound 20], the IC (TGI) in data set [1] and in data set [2] was 5 to 40 µM each time.
Take `COCCNC(=O)Nc1cc(NS(=O)(=O)c2c(F)c(F)c(F)c(F)c2F)ccc1OC` [Compound 21]: the IC (TGI) in data set [1] was 5 to 40 µM; in data set [2], above 40 µM.
